From PubChem BioAssay AID256 (DTP/NCI, 2004)
Where “and” joins values, the source holds several entries; their conditions need not be identical. Equal entries are not always repeated. Toxic doses and inconclusive results are not listed.

System: CD2F1 mice, L1210 leukemia ip, survival T/C
Assay: NCI In Vivo Anticancer Drug Screen. Data for tumor model L1210 Leukemia (intraperitoneal) in CD2F1 (CDF1) mice
Conditions: higher = longer survival
Method in brief: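 In this screen, transplantable tumors were grown in mice given either the compound or its vehicle. Results were expressed as the treated measurement relative to the control measurement.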

[1] = endpoint: mean survival time, dose: 100.0 mg/kg/injection, schedule: Q01DX009 (ip), vehicle: saline with Tween-80
[2] = endpoint: mean survival time, dose: 200.0 mg/kg/injection, schedule: Q01DX009 (ip), vehicle: saline with Tween-80
[3] = endpoint: mean survival time, dose: 200.0 mg/kg/injection, schedule: Q04DX003 (ip), vehicle: saline with Tween-80
[4] = endpoint: mean survival time, dose: 400.0 mg/kg/injection, schedule: Q04DX003 (ip), vehicle: saline with Tween-80

In the case of `Cc1nc(-c2ccc(N=Cc3ccc(N(CCOS(C)(=O)=O)CCOS(C)(=O)=O)cc3C)cc2)c(C)s1`, the T/C (endpoint: mean survival time, dose: 5.0 mg/kg/injection, schedule: Q01DX001 (ip), vehicle: Klucel (hydroxypropylcellulose) (HPC)) is reported as 101 % of control, the T/C (endpoint: mean survival time, dose: 10.0 mg/kg/injection, schedule: Q01DX001 (ip), vehicle: Klucel (hydroxypropylcellulose) (HPC)) is reported as 104 % of control and the T/C (endpoint: mean survival time, dose: 20.0 mg/kg/injection, schedule: Q01DX001 (ip), vehicle: Klucel (hydroxypropylcellulose) (HPC)) is reported as 104 % of control. The T/C (endpoint: mean survival time, dose: 40.0 mg/kg/injection, schedule: Q01DX001 (ip), vehicle: Klucel (hydroxypropylcellulose) (HPC)) was 115 % of control.

In the case of `O=NNc1ccccn1`, the T/C (endpoint: mean survival time, dose: 8.0 mg/kg/injection, schedule: Q04DX003 (ip), vehicle: saline) is reported as 114 % of control, the T/C (endpoint: median survival time, dose: 0.78 mg/kg/injection, schedule: Q01DX009 (ip), vehicle: saline) is reported as 104 % of control and the T/C (endpoint: median survival time, dose: 1.56 mg/kg/injection, schedule: Q01DX005 (ip), vehicle: saline) is reported as 107 % of control. The T/C (endpoint: median survival time, dose: 1.56 mg/kg/injection, schedule: Q01DX009 (ip), vehicle: saline) was 106 % of control, the T/C (endpoint: median survival time, dose: 3.12 mg/kg/injection, schedule: Q01DX005 (ip), vehicle: saline) was 117 % of control and 110 % of control and the T/C (endpoint: median survival time, dose: 3.12 mg/kg/injection, schedule: Q01DX009 (ip), vehicle: saline) was 110 % of control. For the same compound, the T/C (endpoint: median survival time, dose: 3.13 mg/kg/injection, schedule: Q01DX005 (ip), vehicle: saline) was 122 % of control, the T/C (endpoint: median survival time, dose: 6.25 mg/kg/injection, schedule: Q01DX005 (ip), vehicle: saline) was 117 % of control and the T/C (endpoint: median survival time, dose: 6.25 mg/kg/injection, schedule: Q01DX009 (ip), vehicle: saline) was 119 % of control. The T/C (endpoint: median survival time, dose: 12.5 mg/kg/injection, schedule: Q01DX005 (ip), vehicle: saline) was 160 % of control, the T/C (endpoint: median survival time, dose: 25.0 mg/kg/injection, schedule: Q01DX005 (ip), vehicle: saline) was 184 % of control and 187 % of control and the T/C (endpoint: median survival time, dose: 50.0 mg/kg/injection, schedule: Q01DX005 (ip), vehicle: saline) was 96 % of control and 103 % of control.

With `O=C(NC/C=C/Br)Nc1cnc2ccccc2c1` the T/C (endpoint: mean survival time, dose: 25.0 mg/kg/injection, schedule: Q04DX003 (ip), vehicle: saline with Tween-80) was 102 % of control and the T/C (endpoint: mean survival time, dose: 50.0 mg/kg/injection, schedule: Q04DX003 (ip), vehicle: saline with Tween-80) was 93 % of control.

For `CC(O)CNCCNC(=O)CNC(=O)C=[N+]=[N-]` (stereo unspecified), the T/C (endpoint: mean survival time, dose: 200.0 mg/kg/injection, schedule: Q01DX009 (ip), vehicle: other) was 108 % of control and the T/C (endpoint: mean survival time, dose: 800.0 mg/kg/injection, schedule: Q01DX009 (ip), vehicle: other) was 155 % of control.

For `O=C1C=C(c2ccccc2)C(=O)C(c2ccccc2)=C1c1ccccc1`, the T/C (endpoint: mean survival time, dose: 100.0 mg/kg/injection, schedule: Q04DX002 (ip), vehicle: saline with Tween-80) was 94 % of control, the T/C (endpoint: mean survival time, dose: 200.0 mg/kg/injection, schedule: Q04DX002 (ip), vehicle: saline with Tween-80) was 94 % of control and the T/C (endpoint: mean survival time, dose: 400.0 mg/kg/injection, schedule: Q04DX002 (ip), vehicle: saline with Tween-80) was 90 % of control.

In the case of `COC1OC(COC(=O)c2ccc([N+](=O)[O-])cc2)C(SC#N)C1OC(=O)c1ccc([N+](=O)[O-])cc1` (stereo unspecified), the T/C (endpoint: mean survival time, dose: 50.0 mg/kg/injection, schedule: Q01DX001 (ip), vehicle: saline) is reported as 101 % of control, the T/C (endpoint: mean survival time, dose: 100.0 mg/kg/injection, schedule: Q01DX001 (ip), vehicle: saline) is reported as 101 % of control and the T/C (endpoint: mean survival time, dose: 200.0 mg/kg/injection, schedule: Q01DX001 (ip), vehicle: saline) is reported as 91 % of control. For the same compound, the T/C (endpoint: mean survival time, dose: 400.0 mg/kg/injection, schedule: Q01DX001 (ip), vehicle: saline) was 101 % of control.

In the case of `CCOC(=O)Nc1cc2c(c(N)n1)N=C(c1ccc(-c3ccccc3)cc1)CN2`, the T/C (endpoint: mean survival time, dose: 0.78 mg/kg/injection, schedule: Q01DX009 (ip), vehicle: Klucel (hydroxypropylcellulose) (HPC)) is reported as 106 % of control, the T/C (endpoint: mean survival time, dose: 1.56 mg/kg/injection, schedule: Q01DX009 (ip), vehicle: Klucel (hydroxypropylcellulose) (HPC)) is reported as 112 % of control and the T/C (endpoint: mean survival time, dose: 3.12 mg/kg/injection, schedule: Q01DX009 (ip), vehicle: Klucel (hydroxypropylcellulose) (HPC)) is reported as 114 % of control and 111 % of control. The T/C (endpoint: mean survival time, dose: 6.25 mg/kg/injection, schedule: Q01DX009 (ip), vehicle: Klucel (hydroxypropylcellulose) (HPC)) was 109 % of control, the T/C (endpoint: mean survival time, dose: 12.5 mg/kg/injection, schedule: Q01DX001 (ip), vehicle: Klucel (hydroxypropylcellulose) (HPC)) was 115 % of control and the T/C (endpoint: mean survival time, dose: 12.5 mg/kg/injection, schedule: Q01DX009 (ip), vehicle: Klucel (hydroxypropylcellulose) (HPC)) was 89 % of control. For the same compound, the T/C (endpoint: mean survival time, dose: 50.0 mg/kg/injection, schedule: Q01DX001 (ip), vehicle: Klucel (hydroxypropylcellulose) (HPC)) was 121 % of control.

`CN=C(N)CS` was tested, and the T/C (endpoint: mean survival time, dose: 25.0 mg/kg/injection, schedule: Q04DX002 (ip), vehicle: saline) was 101 % of control, the T/C (endpoint: mean survival time, dose: 50.0 mg/kg/injection, schedule: Q04DX002 (ip), vehicle: saline) was 101 % of control and the T/C (endpoint: mean survival time, dose: 100.0 mg/kg/injection, schedule: Q04DX002 (ip), vehicle: saline) was 101 % of control.

For `CC1=C(N2CC2C)C(=O)c2c(COC(N)=O)c3n(c2C1=O)CC1NC31` (stereo unspecified), the T/C (endpoint: mean survival time, dose: 2.5 mg/kg/injection, schedule: Q01DX001 (ip), vehicle: distilled water + Tween-80) was 111 % of control, the T/C (endpoint: mean survival time, dose: 5.0 mg/kg/injection, schedule: Q01DX001 (ip), vehicle: distilled water + Tween-80) was 101 % of control and the T/C (endpoint: mean survival time, dose: 10.0 mg/kg/injection, schedule: Q01DX001 (ip), vehicle: distilled water + Tween-80) was 111 % of control. For the same compound, the T/C (endpoint: mean survival time, dose: 20.0 mg/kg/injection, schedule: Q01DX001 (ip), vehicle: distilled water + Tween-80) was 122 % of control.

In the case of `COc1ccc(C(C#N)Nc2ccccc2)cc1` (stereo unspecified), the T/C [1] is reported as 106 % of control, the T/C (endpoint: mean survival time, dose: 100.0 mg/kg/injection, schedule: Q04DX003 (ip), vehicle: saline sonified) is reported as 97 % of control and the T/C [2] is reported as 104 % of control. For the same compound, the T/C (endpoint: mean survival time, dose: 200.0 mg/kg/injection, schedule: Q04DX003 (ip), vehicle: saline sonified) was 89 % of control, the T/C (endpoint: mean survival time, dose: 400.0 mg/kg/injection, schedule: Q01DX009 (ip), vehicle: saline with Tween-80) was 103 % of control and the T/C (endpoint: mean survival time, dose: 400.0 mg/kg/injection, schedule: Q04DX003 (ip), vehicle: saline sonified) was 103 % of control.

For `CCOC(=O)N1CCc2nc3ccccc3cc21`, the T/C (endpoint: mean survival time, dose: 50.0 mg/kg/injection, schedule: Q01DX001 (ip), vehicle: other) was 106 % of control, the T/C (endpoint: mean survival time, dose: 100.0 mg/kg/injection, schedule: Q01DX001 (ip), vehicle: other) was 109 % of control and the T/C (endpoint: mean survival time, dose: 200.0 mg/kg/injection, schedule: Q01DX001 (ip), vehicle: other) was 97 % of control.

In the case of `COc1cc2c(cc1OC)NC(=O)CC(=O)N2`, the T/C [3] is reported as 91 % of control and the T/C [4] is reported as 98 % of control.

`CN(Cc1cnc2nc(N)nc(N)c2n1)c1ccc(C(=O)NC(CCC(=O)O)C(=O)NCC(=O)O)cc1` (stereo unspecified) was tested, and the T/C (endpoint: mean survival time, dose: 1.0 mg/kg/injection, schedule: Q01DX009 (ip), vehicle: sodium bicarbonate) was 103 % of control, the T/C (endpoint: mean survival time, dose: 2.0 mg/kg/injection, schedule: Q01DX009 (ip), vehicle: sodium bicarbonate) was 109 % of control and the T/C (endpoint: mean survival time, dose: 5.0 mg/kg/injection, schedule: Q01DX009 (ip), vehicle: sodium bicarbonate) was 102 % of control. For the same compound, the T/C (endpoint: mean survival time, dose: 10.0 mg/kg/injection, schedule: Q01DX009 (ip), vehicle: sodium bicarbonate) was 108 % of control.

`CS(=O)(=O)Nc1ccc2c(c1)C(=O)c1ccccc1C2=O` was tested, and the T/C (endpoint: mean survival time, dose: 50.0 mg/kg/injection, schedule: Q01DX009 (ip), vehicle: saline with Tween-80) was 101 % of control, the T/C [1] was 101 % of control and the T/C [2] was 97 % of control.

With `CCC(=O)N(C)[C@@H](C)C(=O)O[C@H]1CC(=O)N(C)c2cc(cc(OC)c2Cl)C/C(C)=C/C=C[C@@H](OC)[C@@]2(O)C[C@H](OC(=O)N2)[C@@H](C)[C@@H]2O[C@@]12C` the T/C (endpoint: mean survival time, dose: 1.3 micrograms/kg/injection, schedule: Q01DX009 (ip), vehicle: saline + alcohol) was 110 % of control, the T/C (endpoint: mean survival time, dose: 2.5 micrograms/kg/injection, schedule: Q01DX009 (ip), vehicle: saline + alcohol) was 119 % of control and the T/C (endpoint: mean survival time, dose: 2.5 micrograms/kg/injection, schedule: Q01DX009 (ip), vehicle: saline) was 109 % of control. For the same compound, the T/C (endpoint: mean survival time, dose: 3.8 micrograms/kg/injection, schedule: Q01DX009 (ip), vehicle: saline + alcohol) was 120 % of control, the T/C (endpoint: mean survival time, dose: 5.0 micrograms/kg/injection, schedule: Q01DX009 (ip), vehicle: saline + alcohol) was 117 % of control and 111 % of control and the T/C (endpoint: mean survival time, dose: 5.0 micrograms/kg/injection, schedule: Q01DX009 (ip), vehicle: saline) was 111 % of control. The T/C (endpoint: mean survival time, dose: 7.5 micrograms/kg/injection, schedule: Q01DX009 (ip), vehicle: saline + alcohol) was 106 % of control, the T/C (endpoint: mean survival time, dose: 10.0 micrograms/kg/injection, schedule: Q01DX009 (ip), vehicle: saline + alcohol) was 115 % of control and the T/C (endpoint: mean survival time, dose: 10.0 micrograms/kg/injection, schedule: Q01DX009 (ip), vehicle: saline) was 111 % of control. The T/C (endpoint: mean survival time, dose: 15.0 micrograms/kg/injection, schedule: Q01DX009 (ip), vehicle: saline + alcohol) was 112 % of control, the T/C (endpoint: mean survival time, dose: 20.0 micrograms/kg/injection, schedule: Q01DX009 (ip), vehicle: saline) was 111 % of control and the T/C (endpoint: mean survival time, dose: 30.0 micrograms/kg/injection, schedule: Q01DX009 (ip), vehicle: saline + alcohol) was 122 % of control. The T/C (endpoint: mean survival time, dose: 30.0 micrograms/kg/injection, schedule: Q01DX009 (ip), vehicle: saline) was 117 % of control and the T/C (endpoint: mean survival time, dose: 60.0 micrograms/kg/injection, schedule: Q01DX009 (ip), vehicle: saline + alcohol) was 114 % of control.

In the case of `Cc1cc(S(N)(=O)=O)c(N)c(S(N)(=O)=O)c1`, the T/C (endpoint: mean survival time, dose: 100.0 mg/kg/injection, schedule: Q04DX003 (ip), vehicle: saline with Tween-80) is reported as 96 % of control, the T/C [3] is reported as 93 % of control and the T/C [4] is reported as 102 % of control.
